Results from patent publication US12421206B2, “Aryl-n-aryl derivatives for treating a RNA virus infection” (ABIVAX, priority 2018, dated 2025).

System: Chikungunya Virus (CHIKV) strain LR2006-OPY1 with GFP modification (CHIK 5'LR)
Experiment: microbe, parasite or virus in culture
Type: cell-based
Settings: HEK-293T, infected HEK293T cells; for inhibition at 1 µM: compounds at 1 μM, MOI 0.1, 22 h, mean of 2 experiments, values above 100 lowered to 100, read-out: % CHIKV Inhibition Mean (n = 2); for IC50: second round of experiments, range stated for listed compounds, read-out: IC50 (CHIKV inhibition)
Procedure: The ability of the compounds to inhibit viral replication was assessed with an experiment in which infected cells were treated by compounds of formula (Ie) at 1 μM. As a positive control for inhibition of Chikungunya, Ribavirin was used. Toxicity of the compounds was assessed in parallel.
Human embryonic kidney cells 293T (HEK293T, CRL-11268) were maintained in Dulbecco's modified Eagle's Medium (DMEM, 31966-021, Thermo Fisher Scientific) supplemented with 10% of fetal bovine serum (FBS), penicillin and streptomycin. After removal of the medium, cells were washed with Ca^2+ and Mg^2+-free salt solution to remove all traces of serum. After aspiration of wash solution, cells were dissociated with 0.25% Trypsin-EDTA solution and incubated 30 s at least in 37° C. incubator. Concentration of cell suspension was determined by an automatic cell counter (EVE, NanoEntek) and, if needed, adjusted to 0.33×10^6 cells/mL with DMEM medium supplemented with 10% FBS.
100 μL of the cell suspension were dispatched in a ViewPlate-96 Black (6005182, PerkinElmer) and in a transparent 96-well cell culture plate (655180, Greiner bio-one). After an incubation for 24 h at 37° C. under 5% of CO2, compounds were added at the proper concentration.
An intermediate dilution was prepared with DMSO (D8418, Sigma) at 2 mM in a 96-well V-bottom microplate from the stock solution:
Mix 1 μL of the 50 mM stock library in 25 μL of DMSO.
Mix 2 μL of the 25 mM stock library in 25 μL of DMSO.
An intermediate dilution was prepared with DMSO (D8418, Sigma) at 25 mM in a 96-well V-bottom microplate from the stock solution:
Mix 2 μL of the 50 mM stock library in 2 μL of DMSO.
Perform serial dilution in 2 μL of DMSO 13 times to reach 0.0015 mM. Proceed as follows in table III:
For both screen and determination of IC50, 1 μL of each solution was added in a 1 mL Masterblock 96 wells (Greiner bio-one, 780261) containing 1 mL of DMEM medium. As a positive control, 5 μL of a 80 mM Ribavirin solution (R9644, Sigma) is added to 1 mL of DMEM. On the other hand, DMSO is used as a negative control.
[…]. Vector Borne Zoonotic Dis. 2006; 6(4)). This modified virus was used to infect cells at MOI 0.1. […].
Medium was removed after 22 h at 37° C. under 5% of CO2 and cells were washed as described above. 60 μL of RIPA buffer (50 mM Tris-HCl pH8, 100 mM NaCl, 1 mM MgCl2, 1% Triton X-100) was added to cells and incubated for at least 20 min before reading fluorescence signal. Pierce 660 nm Protein Assay Reagent (22660, Thermo scientific) was used to normalize fluorescence signal by protein quantity.
• A first round of experiments has been performed wherein the results are expressed as inhibition percentage, which is calculated as follows, through the following steps: • 1. Fluorescence intensity (FI)/Absorbance 660 nm (A660)=A
This ratio allows considering the infection (GFP virus) to the protein amount. • 2. A′=A−background noise of non-infected plate, • 3. B=Fluorescence intensity (FI)/Absorbance 660 nm (A660) of infected but non treated plates, • 4. C=A′/B, which is then converted as the percentage of infection after treatment, compared to non-treated sample, and subsequently as the infection percentage. For instance, a value of 100 in Table IV here below means that, after treatment, the signal attributed to GFP fluorescence is abolished, which is correlated to the absence of infection. • 5. C′=100−C
This value corresponds to the inhibition's percentage.
The following Table IV encompasses said C′ value for some compounds, as calculated above with a mean of 2 experiments, and corresponding standard deviation.
Some values were originally above 100. In these cases, the value has been lowered to 100. This means that some molecules also have an impact on the viability of the cells. In other words, the A value may be lower than the background noise.
Moreover, for each measure, the test was performed with Ribavirin as control. The value of the inhibition percentage was checked, giving 100%.

| SMILES | inhibition at 1 µM [%] | IC50 [nM] |
| --- | --- | --- |
| O=C(NCCC1CCCCC1)c1cccc(Nc2ccc(OCc3ccccn3)cc2)c1 [Compound 38, N-(2-cyclohexylethyl)-3-((4-(pyridin-2-ylmethoxy)phenyl)amino)benzamide] | 99 |  |
| Cc1cc(OCc2ccccn2)ccc1Nc1cccc(C(=O)NCCC2CC2)c1 [Compound 45, N-(2-cyclopropylethyl)-3-((2-methyl-4-(pyridin-2-ylmethoxy)phenyl)amino)benzamide] | 99 |  |
| Cc1cc(OCc2ccccn2)ccc1Nc1cccc(C(=O)NCCC2CCC2)c1 [Compound 46, N-(2-cyclobutylethyl)-3-((2-methyl-4-(pyridin-2-ylmethoxy)phenyl)amino)benzamide] | 99 |  |
| CCCC(C)NC(=O)c1cccc(Nc2ccc(OCc3ccccn3)cc2)c1 (centres unmarked) [Compound 64, N-(pentan-2-yl)-3-((4-(pyridin-2-ylmethoxy)phenyl)amino)benzamide] |  | 1 to 400 |
| Cc1cc(OCc2ccccn2)ccc1Nc1cccc(NC(=O)NCCC(C)C)c1 [Compound 68, 1-isopentyl-3-(3-((2-methyl-4-(pyridin-2-ylmethoxy)phenyl)amino)phenyl)urea] |  | 1 to 400 |
